Results on 21 compounds are retold here after ChEMBL document CHEMBL4017459, “Synthesis and anti-inflammatory evaluation of N-sulfonyl anthranilic acids via Ir(III)-catalyzed C-H amidation of benzoic acids” (2017).

Assay type in all cases: functional
Experiment [1] relates to RAW264.7. The experiment is described as follows: Anti-inflammatory activity in mouse RAW264.7 cells assessed as inhibition of LPS-induced Il-1beta secretion measured after 24 hrs by Western blot analysis relatively to control. A general note: A western blot detects proteins with antibodies after separation by electrophoresis.
Experiment [2] concerns RAW264.7. The experiment is described as follows: Anti-inflammatory activity in mouse RAW264.7 cells assessed as inhibition of LPS-induced COX-2 expression measured after 24 hrs by Western blot analysis relatively to control.
The test system of experiment [3] is RAW264.7. The experiment is described as follows: Potency index, ratio of ibuprofen to test compound for anti-inflammatory activity in mouse RAW264.7 cells assessed as inhibition of LPS-induced IL-beta secretion.

`COc1ccc(NS(=O)(=O)c2ccc(C)cc2)c(C(=O)O)c1NS(=O)(=O)c1ccc(C)cc1`: the “inhibition (INH)” value in the experiment on RAW264.7 [1] is recorded as -21%; in the experiment on RAW264.7 [2] it was 34%.
The corresponding values for `Cc1cccc(NS(=O)(=O)c2ccc(Br)cc2)c1C(=O)O` are 98% and 36%.
The corresponding values for `Cc1cccc(NS(=O)(=O)c2ccc3ccccc3c2)c1C(=O)O` are 6% and 33%.
For `Cc1ccc(S(=O)(=O)Nc2cccc(C(F)(F)F)c2C(=O)O)cc1` the same measures were 21% and 69%.
On to `Cc1ccc(S(=O)(=O)Nc2ccc3ccccc3c2C(=O)O)cc1`, for which the “inhibition (INH)” value is reported as 9% in the experiment on RAW264.7 [1] and 34% in the experiment on RAW264.7 [2].
For `Cc1cccc(NS(=O)(=O)c2ccc(C(F)(F)F)cc2)c1C(=O)O` the same measures were 54% and 55%.
On to `Cc1ccc(S(=O)(=O)Nc2cc(C)cc(NS(=O)(=O)c3ccc(C)cc3)c2C(=O)O)cc1`, for which the “inhibition (INH)” value in the experiment with RAW264.7 [1] is 66%; in the experiment on RAW264.7 [2], -8%. Also, in the experiment on RAW264.7 [3], the Ratio is recorded as 1.5 - 2.5.
Regarding `CC(C)Cc1ccc(C(C)C(=O)O)cc1` (configuration not stated) [IBUPROFEN], the “inhibition (INH)” value in the experiment on RAW264.7 [1] is reported as 35%; in the experiment on RAW264.7 [2], 54%.
The corresponding values for `Cc1ccc(S(=O)(=O)Nc2cccc(NS(=O)(=O)c3ccc(C)cc3)c2C(=O)O)cc1` are -21% and 22%.
For `Cc1ccc(S(=O)(=O)Nc2cc(C)cc(C)c2C(=O)O)cc1` the same measures were 45% and 52%.
The corresponding values for `Cc1ccc(S(=O)(=O)Nc2cccc(Br)c2C(=O)O)cc1` are 42% and 18%.
Regarding `Cc1ccc(S(=O)(=O)Nc2cccc(Cl)c2C(=O)O)cc1`, the “inhibition (INH)” value in the experiment on RAW264.7 [1] was 45%; in the experiment on RAW264.7 [2], -4%.
For `Cc1cccc(NS(=O)(=O)c2ccccc2)c1C(=O)O` the same measures were 52% and 22%.
For `COc1ccc(S(=O)(=O)Nc2cccc(C)c2C(=O)O)cc1` the same measures were 88% and 51%.
For `Cc1ccc(S(=O)(=O)Nc2ccc(C)cc2C(=O)O)cc1` the same measures were 20% and 49%.
As for `Cc1ccc(S(=O)(=O)Nc2cccc(F)c2C(=O)O)cc1`, the “inhibition (INH)” value in the experiment on RAW264.7 [1] was found to be 82%; in the experiment with RAW264.7 [2], 3%. The Ratio in the experiment with RAW264.7 [3] is 1.5 - 2.5.
Turning to `Cc1cccc(NS(=O)(=O)c2ccccc2F)c1C(=O)O`, the “inhibition (INH)” value with RAW264.7 [1] was 35%; in the experiment on RAW264.7 [2] it was 42%.
With `COc1cccc(NS(=O)(=O)c2ccc(C)cc2)c1C(=O)O`, the “inhibition (INH)” value with RAW264.7 [1] is listed as 66%; in the experiment on RAW264.7 [2] it was 51%. Further, the Ratio with RAW264.7 [3] was 1.5 - 2.5.
With `Cc1ccc(S(=O)(=O)Nc2cccc(C)c2C(=O)O)cc1`, the “inhibition (INH)” value in the experiment with RAW264.7 [1] was 37%; in the experiment with RAW264.7 [2], 72%.
For the compound `Cc1cccc(NS(=O)(=O)c2ccc([N+](=O)[O-])cc2)c1C(=O)O`, the “inhibition (INH)” value with RAW264.7 [1] is listed as 66%; with RAW264.7 [2] it was 67%. Further, in the experiment on RAW264.7 [3], the Ratio is 1.5 - 2.5.
The corresponding values for `Cc1ccc(S(=O)(=O)Nc2cccc([N+](=O)[O-])c2C(=O)O)cc1` are 81%, -1% and 1.5 - 2.5.
